These results are taken from publication PMC9668832, “Increased slow dynamics defines ligandability of BTB domains” (Nature Communications, 2022).

This experiment has as its target T1, MIZ1^BTB (Homo sapiens, UniProt Q13105).
T1 construct: gene ZBTB17; BTB domain, residues 1-115; N-terminal Trx-His6 tag cleaved with PreScission; E. coli BL21(DE3); 13C,15N-labelled; homodimer in solution
T1 sequence (Q13105 1-115): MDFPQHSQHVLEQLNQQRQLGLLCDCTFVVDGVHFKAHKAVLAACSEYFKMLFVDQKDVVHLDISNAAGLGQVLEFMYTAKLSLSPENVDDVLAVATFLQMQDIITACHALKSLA
The experiment can be described thus: 1H-15N HSQC NMR titration. Format: binding.

For `Nc1ccc(-n2cnc(Cl)c2Cl)cc1` [2GG4], the affinity, expressed as Kd, was 68 ± 9 µM.

For the compound `OC1(c2ccc(Cl)c(C(F)(F)F)c2)CCNCC1` [4CC2], the Kd (in general, the concentration at which binding is half-saturated) is 425 ± 59 µM.

For `Cc1nc2ccc(Cl)cc2nc1C` [5DD7], the Kd was determined as 870 ± 140 µM.
